From ChEMBL document CHEMBL5614385, “A peptide-salinomycin conjugate with a bystander effect reduces the stemness characteristics of ovarian cancer cells and enhances drug sensitivity” (Eur J Med Chem, 2024)
Calls of active or inactive are those of the source. The calls are words filed in the database; no cut-off is given here. Non-standard residues stand in square brackets, D forms with d. Residues, ends and D or L forms follow the SMILES beside them. *: point of attachment. X1 = CC[C@@H](C(=O)O)C1CC[C@H](C)C([C@@H](C)[C@H](O)[C@H](C)C(=O)[C@H](CC)C2O[C@]3(C=C[C@@H](NC(=O)CCS*)[C@]4(CC[C@@](C)(C5CC[C@](O)(CC)[C@H](C)O5)O4)O3)[C@H](C)C[C@@H]2C)O1; Sar = CNCC(=O)O

What was measured:
[1] = tested on: SK-OV-3; test: Inhibition of AKT phosphorylation in human SK-OV-3 cells at 5 uM incubated for 24 hrs by Western blot analysis; assay type: cell-based
[2] = target: Vascular endothelial growth factor receptor 2 (Homo sapiens) (UniProt P35968); test: Inhibition of VEGFR2 phosphorylation in human SK-OV-3 cells at 5 uM incubated for 24 hrs by Western blot analysis; assay type: cell-based
[3] = tested on: A2780; test: Binding affinity to CD44 negative human A2780 cells at 5 uM incubated for 1 hrs by flow cytometric analysis; assay type: functional, cell-based
[4] = tested on: A2780; test: Antitumor activity against CD44 negative human A2780 cells expressing GFP co-cultured with CD44 positive human SK-OV-3 cells in DMEM medium at 5:5 ratio assessed as decrease in fluorescence intensity incubated for 72 hrs by enzymatic immunoassay; assay type: functional, cell-based; conditions: dose 2.5-20 µM
[5] = tested on: SK-OV-3; test: Inhibition of cell migration in human SK-OV-3 cells at 5 uM incubated for 24 hrs by microscope based wound healing assay; assay type: functional
[6] = tested on: SK-OV-3; test: Effect on CD44 expression in CD44 positive human SK-OV-3 cells; assay type: functional, cell-based
[7] = tested on: A2780; test: Antitumor activity against CD44 negative human A2780 cells co-cultured with CD44 positive human SK-OV-3 cells in DMEM medium at 6:4 ratio assessed as induction of cell death incubated for 72 hrs by enzymatic immunoassay; assay type: functional, cell-based; conditions: dose 2.5-20 µM
[8] = tested on: SK-OV-3/CDDP; test: Reduction in intracellular GSH level in human SK-OV-3 cells at 5 uM incubated for 36 hrs; assay type: functional, cell-based
[9] = tested on: SK-OV-3/CDDP; test: Cytotoxicity against human SK-OV-3/CDDP cells assessed as inhibition of cell proliferation incubated for 72 hrs by CCK8 assay; assay type: functional, cell-based
[10] = tested on: SK-OV-3; test: Antitumor activity against human SK-OV-3 cells xenografted in nude mouse assessed as reduction in Nanog level administered intravenously every 2 days for 21 days by hematoxylin based immunohistochemistry analysis; assay type: functional, cell-based; conditions: route iv, time 21.0 day
[11] = tested on: A2780; test: Antitumor activity against CD44 negative human A2780 cells co-cultured with CD44 positive human SK-OV-3 cells in DMEM medium at varying ratio assessed as inhibition of cell growth at 20 uM incubated for 72 hrs by enzymatic immunoassay relative to control; assay type: functional
[12] = tested on: SK-OV-3; test: Downregulation of CD133 expression in human SK-OV-3 tumor stem cells at 10 uM incubated for 36 hrs by flow cytometric analysis; assay type: functional, cell-based
[13] = tested on: SK-OV-3; test: Antitumor activity against human SK-OV-3 cells xenografted in nude mouse assessed as tumor growth inhibition at 35 microg/kg, iv administered every 2 days for 21 days; assay type: functional, organism-based; conditions: dose 35.0 µg/kg, time 21.0 day
[14] = target: CD44 antigen (Homo sapiens) (UniProt P16070); test: Binding affinity to CD44 positive human SK-OV-3 cells at 5 uM incubated for 1 hrs by flow cytometric analysis; assay type: cell-based
[15] = tested on: A2780; test: Antitumor activity against CD44 negative human A2780 cells expressing GFP co-cultured with CD44 positive human SK-OV-3 cells in DMEM medium at 4:6 ratio assessed as decrease in fluorescence intensity incubated for 72 hrs by enzymatic immunoassay; assay type: functional, cell-based; conditions: dose 2.5-20 µM
[16] = tested on: SK-OV-3; test: Cytotoxicity against CD44 positive human SK-OV-3 cells assessed as reduction in cell viability at 100 uM preincubated with 10 and 100 uM of 4S)-4-[[(2S)-1-[(2S)-1-[(2S)-2-[[(2S)-2-[[(2S)-1-[(2S)-2-acetamido-6-amino-hexanoyl]pyrrolidine-2-carbonyl]amino]-3-hydroxy-propanoyl]amino]-3-hydroxy-propanoyl]pyrrolidine-2-carbonyl]pyrrolidine-2-carbonyl]amino]-5-[[(1S)-1-[[2-[[2-[[2-[[2-[[2-[[2-[[2-[[2-[[2-[[2-[[(1S)-2-amino-1-methyl-2-oxo-ethyl]amino]-2-oxo-ethyl]-methyl-amino]-2-oxo-ethyl]-methyl-amino]-2-oxo-ethyl]-methyl-amino]-2-oxo-ethyl]-methyl-amino]-2-oxo-ethyl]-methyl-amino]-2-oxo-ethyl]-methyl-amino]-2-oxo-ethyl]-methyl-amino]-2-oxo-ethyl]-methyl-amino]-2-oxo-ethyl]-methyl-amino]-2-oxo-ethyl]-methyl-carbamoyl]-3-carboxy-propyl]amino]-5-oxo-pentanoic acid for 1 hrs followed by compound addition and measured after 24 hrs by CCK8 assay; assay type: functional, cell-based
[17] = tested on: SK-OV-3/CDDP; test: Sensitization of cisplatin-induced antiproliferative activity against human SK-OV-3/CDDP cells assessed as reduction in cell viability at 1 uM incubated for 72 hrs by CCK8 assay; assay type: functional, cell-based
[18] = tested on: SK-OV-3/CDDP; test: Induction of ROS generation in human SK-OV-3/CDDP cells at 5 uM; assay type: functional, cell-based
[19] = tested on: A2780; test: Antitumor activity against CD44 negative human A2780 cells co-cultured with CD44 positive human SK-OV-3 cells in DMEM medium at 4:6 ratio assessed as induction of cell death incubated for 72 hrs by enzymatic immunoassay; assay type: functional, cell-based; conditions: dose 2.5-20 µM
[20] = tested on: SK-OV-3/CDDP; test: Antiproliferative activity against human SK-OV-3/CDDP cells; assay type: functional, cell-based
[21] = tested on: SK-OV-3; test: Inhibition of cell invasion in human SK-OV-3 cells incubated for 24 hrs by crystal violet staining based transwell invasion assay; assay type: functional; conditions: dose 5.0 µM
[22] = tested on: A2780; test: Antitumor activity against CD44 negative human A2780 cells expressing GFP co-cultured with CD44 positive human SK-OV-3 cells in DMEM medium at 6:4 ratio assessed as decrease in fluorescence intensity incubated for 72 hrs by enzymatic immunoassay; assay type: functional, cell-based; conditions: dose 2.5-20 µM
[23] = Solubility of compound in water; assay type: physicochemical; conditions: buffer
[24] = tested on: SK-OV-3; test: Antitumor activity against human SK-OV-3 cells xenografted in nude mouse assessed as reduction in oct-4 level administered intravenously every 2 days for 21 days by hematoxylin based immunohistochemistry analysis; assay type: functional, cell-based; conditions: route iv, time 21.0 day
[25] = tested on: A2780; test: Antitumor activity against CD44 negative human A2780 cells assessed as reduction in cell viability incubated for 72 hrs by CCK8 assay; assay type: functional, cell-based; conditions: A2780, 72 h
[26] = tested on: SK-OV-3; test: Antiproliferative activity against human SK-OV-3 cells; assay type: functional, cell-based
[27] = tested on: SK-OV-3; test: Inhibition of tumor sphere formation in agarose-treated human SK-OV-3 cells assessed as fold decrease in number of formed spheres at 0.5 to 5 uM incubated for 9 days by imaging analysis; assay type: functional; conditions: dose 0.5-5 µM; time 9 day
[28] = tested on: A2780; test: Antitumor activity against CD44 negative human A2780 cells co-cultured with CD44 positive human SK-OV-3 cells in DMEM medium at 5:5 ratio assessed as induction of cell death incubated for 72 hrs by enzymatic immunoassay; assay type: functional, cell-based; conditions: dose 2.5-20 µM
[29] = tested on: SK-OV-3; test: Antitumor activity against CD44 positive human SK-OV-3 cells assessed as reduction in cell viability incubated for 72 hrs by CCK8 assay; assay type: functional, cell-based; conditions: SK-OV-3, 72 h
[30] = tested on: MDA-MB-231; test: Cytotoxicity against human MDA-MB-231 cells assessed as inhibition of cell growth incubated for 72 hrs by CCK8 assay; assay type: functional, cell-based; conditions: MDA-MB-231, 72 h
[31] = tested on: HeLa; test: Cytotoxicity against human HeLa cells assessed as inhibition of cell growth incubated for 72 hrs by CCK8 assay; assay type: functional, cell-based
[32] = tested on: A-431; test: Cytotoxicity against human A-431 cells assessed as inhibition of cell growth incubated for 72 hrs by CCK8 assay; assay type: functional, cell-based; conditions: A-431, 72 h
[33] = tested on: MKN-45; test: Cytotoxicity against human MKN-45 cells assessed as inhibition of cell growth incubated for 72 hrs by CCK8 assay; assay type: functional, cell-based; conditions: MKN-45, 72 h
[34] = tested on: MIA PaCa-2; test: Cytotoxicity against human MIA PaCa-2 cells assessed as inhibition of cell growth incubated for 72 hrs by CCK8 assay; assay type: functional, cell-based; conditions: MIA PaCa-2, 72 h
[35] = tested on: MCF7; test: Cytotoxicity against human MCF7 cells assessed as inhibition of cell growth incubated for 72 hrs by CCK8 assay; assay type: functional, cell-based; conditions: MCF7, 72 h
[36] = tested on: DU-145; test: Cytotoxicity against human DU-145 cells assessed as inhibition of cell growth incubated for 72 hrs by CCK8 assay; assay type: functional, cell-based; conditions: DU-145, 72 h
[37] = tested on: SK-OV-3; test: Inhibition of cell migration in human SK-OV-3 cells at 10 uM incubated for 24 hrs by microscope based wound healing assay; assay type: functional
[38] = tested on: CAL-27; test: Cytotoxicity against human CAL-27 cells assessed as inhibition of cell growth incubated for 72 hrs by CCK8 assay; assay type: functional, cell-based; conditions: CAL-27, 72 h
[39] = tested on: HCCLM3; test: Cytotoxicity against human HCCLM3 cells assessed as inhibition of cell growth incubated for 72 hrs by CCK8 assay; assay type: functional, cell-based; conditions: HCCLM3, 72 h
[40] = tested on: A549; test: Cytotoxicity against human A549 cells assessed as inhibition of cell growth incubated for 72 hrs by CCK8 assay; assay type: functional, cell-based; conditions: A549, 72 h
[41] = tested on: ACHN; test: Cytotoxicity against human ACHN cells assessed as inhibition of cell growth incubated for 72 hrs by CCK8 assay; assay type: functional, cell-based
[42] = tested on: SK-OV-3; test: Inhibition of cell invasion in human SK-OV-3 cells at 5 uM incubated for 24 hrs by crystal violet staining based transwell invasion assay; assay type: functional

Vascular endothelial growth factor receptor 2 (Homo sapiens), sequence (P35968 whole entry): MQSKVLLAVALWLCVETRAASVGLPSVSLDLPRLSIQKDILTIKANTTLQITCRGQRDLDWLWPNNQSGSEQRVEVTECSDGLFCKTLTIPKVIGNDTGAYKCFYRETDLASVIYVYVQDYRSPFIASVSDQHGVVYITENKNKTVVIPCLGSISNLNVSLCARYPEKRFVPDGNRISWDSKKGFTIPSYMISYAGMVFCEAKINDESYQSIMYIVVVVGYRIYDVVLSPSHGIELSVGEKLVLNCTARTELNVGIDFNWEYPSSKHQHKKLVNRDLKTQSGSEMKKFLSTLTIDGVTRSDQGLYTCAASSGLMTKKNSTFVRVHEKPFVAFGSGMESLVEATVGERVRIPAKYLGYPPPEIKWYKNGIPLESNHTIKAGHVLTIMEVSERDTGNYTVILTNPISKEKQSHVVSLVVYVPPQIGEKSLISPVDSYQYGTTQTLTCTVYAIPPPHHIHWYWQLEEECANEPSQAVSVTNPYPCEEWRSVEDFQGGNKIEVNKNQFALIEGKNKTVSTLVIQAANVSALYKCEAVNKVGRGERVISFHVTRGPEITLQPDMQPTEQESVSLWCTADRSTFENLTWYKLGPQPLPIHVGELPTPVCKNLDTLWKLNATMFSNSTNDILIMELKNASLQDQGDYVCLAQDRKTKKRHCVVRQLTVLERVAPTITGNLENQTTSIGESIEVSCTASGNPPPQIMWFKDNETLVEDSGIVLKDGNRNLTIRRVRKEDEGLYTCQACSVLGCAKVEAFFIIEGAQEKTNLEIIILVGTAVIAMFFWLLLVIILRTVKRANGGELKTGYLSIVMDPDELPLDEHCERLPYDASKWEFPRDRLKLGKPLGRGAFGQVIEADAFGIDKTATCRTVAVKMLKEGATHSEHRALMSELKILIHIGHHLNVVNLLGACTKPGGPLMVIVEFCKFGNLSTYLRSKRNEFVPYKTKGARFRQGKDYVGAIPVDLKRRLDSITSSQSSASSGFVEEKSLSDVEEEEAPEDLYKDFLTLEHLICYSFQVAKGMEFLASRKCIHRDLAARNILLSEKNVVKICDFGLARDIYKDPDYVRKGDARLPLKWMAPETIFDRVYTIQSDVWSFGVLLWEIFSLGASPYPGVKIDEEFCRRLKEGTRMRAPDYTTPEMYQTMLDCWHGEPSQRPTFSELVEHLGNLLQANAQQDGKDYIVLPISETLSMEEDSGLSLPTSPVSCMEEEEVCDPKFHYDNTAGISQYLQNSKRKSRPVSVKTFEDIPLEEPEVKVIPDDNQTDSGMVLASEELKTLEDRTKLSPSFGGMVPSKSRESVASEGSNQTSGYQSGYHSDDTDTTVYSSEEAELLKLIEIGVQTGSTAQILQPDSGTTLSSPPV
CD44 antigen (Homo sapiens), sequence (P16070 whole entry): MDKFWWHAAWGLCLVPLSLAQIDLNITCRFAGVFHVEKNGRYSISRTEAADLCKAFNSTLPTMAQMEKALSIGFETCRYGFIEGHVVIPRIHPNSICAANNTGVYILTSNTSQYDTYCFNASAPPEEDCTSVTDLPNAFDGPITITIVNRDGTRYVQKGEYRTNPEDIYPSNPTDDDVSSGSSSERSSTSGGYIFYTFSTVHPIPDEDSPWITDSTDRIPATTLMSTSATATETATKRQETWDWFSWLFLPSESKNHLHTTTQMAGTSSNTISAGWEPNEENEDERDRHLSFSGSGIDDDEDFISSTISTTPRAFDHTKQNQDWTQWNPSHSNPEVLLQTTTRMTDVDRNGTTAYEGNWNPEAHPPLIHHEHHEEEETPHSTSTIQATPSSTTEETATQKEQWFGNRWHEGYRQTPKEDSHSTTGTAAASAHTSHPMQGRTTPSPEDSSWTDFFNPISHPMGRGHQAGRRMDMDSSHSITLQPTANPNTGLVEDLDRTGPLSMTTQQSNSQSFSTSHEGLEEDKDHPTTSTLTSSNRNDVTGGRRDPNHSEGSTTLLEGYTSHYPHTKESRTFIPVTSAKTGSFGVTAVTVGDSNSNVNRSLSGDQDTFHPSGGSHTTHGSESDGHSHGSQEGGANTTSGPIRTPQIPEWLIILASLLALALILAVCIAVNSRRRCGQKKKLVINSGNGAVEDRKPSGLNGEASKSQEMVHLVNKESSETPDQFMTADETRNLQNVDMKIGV

CC(=O)N[C@@H](CCCCN)C(=O)N1CCC[C@H]1C(=O)N[C@@H](CO)C(=O)N[C@@H](CO)C(=O)N1CCC[C@H]1C(=O)N1CCC[C@H]1C(=O)N[C@@H](CCC(=O)O)C(=O)N[C@@H](CCC(=O)O)C(=O)N(C)CC(=O)N(C)CC(=O)N(C)CC(=O)N(C)CC(=O)N(C)CC(=O)N(C)CC(=O)N(C)CC(=O)N(C)CC(=O)N(C)CC(=O)N(C)CC(=O)N[C@@H](C)C(N)=O (Ac-KPSSPPEE[Sar][Sar][Sar][Sar][Sar][Sar][Sar][Sar][Sar][Sar]A-NH2)
inhibition [1]: Active | inhibition [2]: Active

CC[C@@H](C(=O)[O-])C1CC[C@H](C)C([C@@H](C)[C@H](O)[C@H](C)C(=O)[C@H](CC)C2O[C@]3(C=C[C@@H](NC(=O)CCSSC[C@H](NC(=O)CN(C)C(=O)CN(C)C(=O)CN(C)C(=O)CN(C)C(=O)CN(C)C(=O)CN(C)C(=O)CN(C)C(=O)CN(C)C(=O)CN(C)C(=O)CN(C)C(=O)[C@H](CCC(=O)O)NC(=O)[C@H](CCC(=O)O)NC(=O)[C@@H]4CCCN4C(=O)[C@@H]4CCCN4C(=O)[C@H](CO)NC(=O)[C@H](CO)NC(=O)[C@@H]4CCCN4C(=O)[C@H](CCCCN)NC(C)=O)C(N)=O)[C@]4(CC[C@@](C)(C5CC[C@](O)(CC)[C@H](C)O5)O4)O3)[C@H](C)C[C@@H]2C)O1.[Na+] (stereo partly drawn) (Ac-KPSSPPEE[Sar][Sar][Sar][Sar][Sar][Sar][Sar][Sar][Sar][Sar]C(X1)-NH2)
Activity [3]: inactive | Activity [4]: Dose-Dependent Effect | inhibition [5]: Active | Activity [6]: inactive | Activity [7]: Dose-Dependent Effect | Activity [8]: Active | IC50 [9]: 6.09 µM | Activity [10]: Active | inhibition at 20 µM [11]: > 80% | Activity [12]: Active | Activity [13]: Active | Activity [14]: Active | Activity [15]: Dose-Dependent Effect | Activity [16]: inactive | Activity [17]: Active | Activity [18]: Active | Activity [19]: Dose-Dependent Effect | IC50 [20]: 18.7 µg/mL | inhibition [21]: Dose-Dependent Effect | Activity [22]: Dose-Dependent Effect | inhibition [1]: Active | solubility [23]: Soluble | Activity [24]: Active | IC50 [25]: 47.1 µM | IC50 [26]: 5.21 µg/mL | inhibition [2]: Active | fold change (FC) [27]: 4.6 | Activity [28]: Dose-Dependent Effect | IC50 [29]: 5.45 µM

CC[C@@H](C(=O)[C@@H](C)[C@@H](O)[C@H](C)[C@@H]1O[C@@H]([C@@H](CC)C(=O)O)CC[C@@H]1C)[C@H]1O[C@]2(C=C[C@@H](O)[C@]3(CC[C@@](C)([C@H]4CC[C@](O)(CC)[C@H](C)O4)O3)O2)[C@H](C)C[C@@H]1C [SALINOMYCIN]
inhibition [5]: inactive | Activity [6]: inactive | IC50 [9]: 10.3 µM | IC50 [30]: 0.9 µM | IC50 [31]: 25 µM | IC50 [32]: 5.27 µM | Activity [12]: Active | IC50 [33]: 6.49 µM | IC50 [34]: 5.03 µM | Activity [17]: Active | IC50 [35]: 9.89 µM | IC50 [36]: 47.1 µM | inhibition [37]: Active | inhibition [1]: Active | IC50 [25]: 0.16 µM | IC50 [38]: 30.2 µM | IC50 [39]: 7.99 µM | inhibition [2]: Active | IC50 [40]: 25.1 µM | IC50 [41]: 26 µM | IC50 [29]: 12.4 µM | inhibition [42]: Active
